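Exposure lasted 48 hours, with cells grown in 96-well plates and compounds tested at five concentrations. GI50 is the concentration that inhibits growth by half.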 Calls of active or inactive are those of the source. Rule as the data show it: active = GI50 up to about 1.1 µM and inactive = higher.
Assays:
Assay in all cases: NCI anticancer screen, dose series, 48 h
BT-549 = tested on: BT-549
LXFL 529 = tested on: LXFL 529
RXF 631 = tested on: RXF 631
KM-20L2 = tested on: KM-20L2
DMS-114 = tested on: DMS-114
M19-MEL = tested on: M19-MEL
XF498 = tested on: XF498
DMS-273 = tested on: DMS-273
HOP-18 = tested on: HOP-18

Row | Compound | GI50 (BT-549) | GI50 (LXFL 529) | GI50 (RXF 631) | GI50 (KM-20L2) | GI50 (DMS-114) | GI50 (M19-MEL) | GI50 (XF498) | GI50 (DMS-273) | GI50 (HOP-18)
1 | COC12OC3(C4OC41)C(C(=O)O[C@H]3CO[Si](C)(C)C(C)(C)C)C2C(=O)Oc1ccccc1 (stereo partly drawn) | 0.991 µM (active) |  |  |  |  |  |  |  | 
2 | N#C[C@H](c1ccccn1)c1nc2ccccc2nc1Cl | > 100 µM (inactive) |  |  |  |  |  |  |  | 
3 | Cc1cc2nc3c(C(O)CO)nn(-c4ccccc4)c3nc2cc1C (stereo not drawn) | 18.8 µM (inactive) |  |  |  |  |  |  |  | 
4 | CC(C)N(C)C(=O)C12C3C4C1C1C2C3C41C#N (stereo not drawn) | > 100 µM (inactive) |  |  |  |  |  |  |  | 
5 | Cc1nc2c(nc1Cl)nc(Oc1ccc(Cl)cc1)c1ccccc12 |  | 51.4 µM (inactive) | > 100 µM (inactive) | > 100 µM (inactive) | 47.5 µM (inactive) | > 100 µM (inactive) | 73.3 µM (inactive) | 46.5 µM (inactive) | 
6 | O=S(O)CCCSSSCCCS(=O)O |  | > 100 µM (inactive) | > 100 µM (inactive) | > 100 µM (inactive) | > 100 µM (inactive) | > 100 µM (inactive) | > 100 µM (inactive) |  | 
7 | Cc1nc(N(CCO)CCO)c2sc(=S)n(-c3ccccc3)c2n1 |  | > 100 µM (inactive) |  |  |  |  |  |  | > 100 µM (inactive)
8 | Cc1nc2ccccc2c(=O)n1CC(=O)O |  |  |  | > 100 µM (inactive) | > 100 µM (inactive) | > 100 µM (inactive) | > 100 µM (inactive) | > 100 µM (inactive) | > 100 µM (inactive)
9 | Cc1cc(S(=O)(=O)NC2=NCc3nc4ccccc4n32)c(S)cc1Cl | 23 µM (inactive) |  |  |  |  |  |  |  | 
10 | O=C1C2c3[nH]c4ccccc4c3C3CCSCC3C2C(=O)N1c1ccccc1 (stereo not drawn) |  | > 100 µM (inactive) |  | > 100 µM (inactive) |  | > 100 µM (inactive) | > 100 µM (inactive) | > 100 µM (inactive) | 
11 | O=C1CCCCCCCCCCOC(=O)CCCCCCCCCCO1 |  | > 100 µM (inactive) |  | > 10 µM (inactive) | > 100 µM (inactive) | > 100 µM (inactive) |  | > 100 µM (inactive) | > 100 µM (inactive)
12 | O=C(c1ccccc1)c1cc(Cl)ccc1NCn1nnc2ccccc21 |  | 98.9 µM (inactive) |  | 60.4 µM (inactive) | 31.5 µM (inactive) | 81.7 µM (inactive) | > 100 µM (inactive) | 39.1 µM (inactive) | > 100 µM (inactive)
13 | CN(C)CCCn1c(-c2ccc(Br)cc2)cs/c1=N\c1ccccc1 | 15.4 µM (inactive) |  |  |  |  |  |  |  | 
14 | CC(=O)O[C@H]1CC[C@@]2(C)[C@H](CC[C@@H]3[C@@H]2CC[C@]2(C)[C@@H](c4ccc(=O)oc4)C[C@H]4O[C@]342)C1 |  |  |  | 1.38 µM (inactive) | 0.119 µM (active) | 1.05 µM (active) | 1.3 µM (inactive) | 0.458 µM (active) | 0.423 µM (active)
15 | C=C1CC(OC)(C(OC)C(=O)N[C@H]2OCO[C@H]3C2O[C@H](C[C@@H](COC)OC)C(C)(C)C3OC)O[C@H](C)[C@@H]1C (stereo partly drawn) |  |  |  | 0.931 µM (active) | 1.22 µM (inactive) | 0.778 µM (active) | 0.604 µM (active) | 0.875 µM (active) | 2.08 µM (inactive)
16 | CC(=O)NC1=C(C)C(=O)c2c(nc3n2CCC3OC(=O)c2ccccc2)C1=O (stereo not drawn) |  | 1.56 µM (inactive) |  |  | 0.805 µM (active) | 1.69 µM (inactive) |  | 2.07 µM (inactive) | 
17 | O=C1CC2(CCC(O)(c3ccc4ccccc4c3)C(C(=O)c3ccc4ccccc4c3)C2)C(=O)c2ccccc2N1 (stereo not drawn) | > 100 µM (inactive) |  |  |  |  |  |  |  | 
18 | C=C(/C=C/C=C(/CCC=C(C)C)COC(C)=O)[C@@H]1CC[C@]2([C@H](CCCO)/C(=C(/C)C=O)CC[C@]2(C)O)[C@@H]1O |  |  |  | 14.4 µM (inactive) | 14.2 µM (inactive) | 15.7 µM (inactive) |  | 2.27 µM (inactive) | 11.5 µM (inactive)
19 | c1ccc2c(c1)c1c(n2CCOCCCN2CCCCC2)CCCC1 | 15.5 µM (inactive) |  |  |  |  |  |  |  | 
20 | C[N+](C)(C)/C=N\c1cccc2c1CCCC2 | 57.1 µM (inactive) |  |  |  |  |  |  |  | 
21 | CC12CCC3C(CCC4CC(OC(=O)Cc5ccc(N(CCCl)CCCl)cc5)CCC43C)C1CCC(=O)N2 (stereo not drawn) |  | 16.2 µM (inactive) |  | 17.4 µM (inactive) | 12.8 µM (inactive) | 17.2 µM (inactive) | 16.5 µM (inactive) | 12.9 µM (inactive) | 17.3 µM (inactive)
22 | Cc1c(Cc2ccccc2)n(COCCCO)c(=O)[nH]c1=O | > 100 µM (inactive) |  |  |  |  |  |  |  | 
23 | N#Cc1c(-c2ccccc2)c(CN2CCCCC2)c(=O)n2c1[nH]c1ccccc12 | 35 µM (inactive) |  |  |  |  |  |  |  | 
